Measured values taken from US10287328B2, “Treatment of diabetes, toll-like receptor 4 modulators and methods for using the same” (KeMyth Biotech Co., Ltd., priority 2016, dated 2019).

Tests used:
TLR4 = test: LPS-induced PMN transendothelial migration, PMNs from wild type C3H/HeN mice; assay type: cell-based
Description: (§1) To obtain mice neutrophils from TLR4-deficient [TLR4(−/−)] C3H/HeJ mice and wild type C3H/HeN mice, inflammation was induced by 0.1 ml of uric acid solution into the peritoneal cavity of the mouse. The uric acid solution (noncrystalline form) was prepared by mixing with saline (10% [wt/vol]) and sonicated for 10 min. Immediately before inoculation, the milky white precipitated uric acid solution was shaken vigorously. Peritoneal exudate cells were harvested 4, 18, or 24 h after injection by two lavages of the peritoneal cavity with 5 ml of cold phosphate-buffered saline (PBS; total volume, 10 ml). Uric acid-induced peritoneal cells (UAPMN) were washed by centrifugation at 200×g for 10 min at 4° C. Followed by hypotonic lysis to eliminate red blood cells, centrifugation and an additional wash were performed. The cells were then resuspended in Krebs-Ringer phosphate buffer (KRG; pH 7.3). The numbers and populations of peritoneal exudate cells were determined by staining the nuclei with Turk reagent and by cytospin centrifugation followed by May-Grünwald-Giemsa staining, respectively. Uric acid injection into the peritoneal cavity gave a yield of 1 to 2×10^7 cells/mouse depending on time of incubation (4 hr). The levels of purity of the uric acid-induced PMN were 95% after 4 h postinjection. Viability of the isolated neutrophils exceeded 95% as determined by trypan blue exclusion. The PMN from TLR4(−/−) C3H/HeJ mice and wild type C3H/HeN mice were then used for PMN transmigration Assay.
Neutrophils from human were isolated blood that was drawn in a syringe containing preservative-free heparin (20 U/ml final), and mixed with an equal volume of PBS containing 3% dextran and then incubated for 20 min at room temperature. The leukocyte-rich plasma (upper layer) was collected and pellet cells was obtained from the plasma by centrifuge and resuspended in 0.9% NaCl. Layer 10 ml Ficoll-Hypaque solution beneath the cell suspension. After centrifuge 1500×g for 20 min, aspirate the Ficoll-Hypaque layer, leaving the neutrophil/RBC pellet. Cells were subjected to hypotonic lysis by resuspending each neutrophil/RBC pellet in cold 0.2% NaCl for 30 sec. At the end of this period, restore isotonicity by adding ice-cold 1.6% NaCl. After centrifuge, resuspend cells in ice-cold PBS/glucose buffer. Neutrophils from mice were isolated from the peritoneum as previously described. See, e.g., Rabes et al., Curr Top Microbiol Immunol 397:215-227 (2016). The cell concentration was adjusted to […]. The viability of the isolated neutrophils exceeded 95%, as determined by Trypan blue exclusion.
Transendothelial migration was performed by using a Transwell system. Transwell filters were pre-seeded with HUVEC monolayers for 24 hrs and transferred to clean 24-well plates. HUVECs were washed twice with DPBS, 500 μl of ECM was added to the Transwell filter compartment and 10^6 neutrophils were then added in upper chamber. Transendothelial migration was stimulated by addition of LPS to the lower chamber to a final concentration of 1 μg/ml. Cells were incubated with the endothelial cells for 1 h at 37° C. At the conclusion of the incubation, migrated cells were collected from the lower chamber and counted in a hemacytometer in triplicate. Percent PMN transmigration was calculated by dividing the number of PMN recovered from the lower chamber by the number of PMN initially added.
PMN transendothelial migration plays an important role in early stage of atherogenesis. […].

[1] = system: PMNs isolated from TLR4(−/−) mice C3H/HeJ; test: LPS-induced PMN transendothelial migration, PMNs from TLR4(-/-) C3H/HeJ mice; assay type: cell-based; conditions: LPS 1 μg/ml, HUVEC monolayer Transwell
Description: as §1, with “Followed by hypotonic lysis to eliminate red blood cells, centrifugation and an additional wash were performed. The cells were then resuspended in Krebs-Ringer phosphate buffer (KRG; pH 7.3).” left out, “Uric acid injection into the peritoneal cavity gave a yield of 1 to 2×10^7 cells/mouse depending on time of incubation (4 hr). The levels of purity of the uric acid-induced PMN were 95% after 4 h postinjection.” left out, “The PMN from TLR4(−/−) C3H/HeJ mice and wild type C3H/HeN mice were then used for PMN transmigration Assay.” left out
Neutrophils from human were isolated blood that was drawn in a syringe containing preservative-free heparin (20 U/ml final), and mixed with an equal volume of PBS containing 3% dextran and then incubated for 20 min at room temperature. […] The viability of the isolated neutrophils exceeded 95%, as determined by Trypan blue exclusion. […]

## QDLTAHFTTSIPLKGNVRNLSVKIRECTGLAWEWWRTVYEKTDLPLVRKRTISIWGTTLYPQVEDKVEND [C70PLY4]
TLR4; PMNs from C3H/HeN mice, LPS 1 μg/ml, HUVEC monolayer Transwell
  PMNs migration, WT mice model (FIG. 10): significant inhibition of PMNs cell migration
TLR4; WT mice model, LPS-induced
  LPS induced PMN migration (FIGS. 11-12): inhibitory effects
[1]
  PMNs migration, TLR4(−/−) mice model (FIG. 10): this phenomenon did not occur
